Legend:
Gingipain K = Gingipain K (Porphyromonas gingivalis, UniProt Q51817); assay: biochemical; assay type: biochemical; conditions: Table 6, legumain specific inhibitors; NI = no inhibition after 20 minutes of incubation
Caspase-2 = biological target: T1, Caspase-2 (Homo sapiens, UniProt P42575); assay: Caspase-2 progress curve inhibition assay; conditions: second-order rate constant; Cbz-VDVAD-AFC substrate; Pipes buffer pH 7.2
T1 sequence (P42575 170-333 limits assumed): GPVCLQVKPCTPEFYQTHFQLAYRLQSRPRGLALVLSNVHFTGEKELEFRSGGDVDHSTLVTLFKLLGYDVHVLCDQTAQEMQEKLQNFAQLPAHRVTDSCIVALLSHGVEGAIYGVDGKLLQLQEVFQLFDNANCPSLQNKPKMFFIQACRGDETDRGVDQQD
T1 sequence (P42575 348-452 limits assumed): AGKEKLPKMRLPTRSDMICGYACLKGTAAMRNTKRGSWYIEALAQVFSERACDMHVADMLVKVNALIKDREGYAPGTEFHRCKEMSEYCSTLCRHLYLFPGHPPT

Caspase-10 = biological target: T2, Caspase-10 (Homo sapiens, UniProt Q92851); assay: Caspase-10 progress curve inhibition assay; conditions: second-order rate constant; Ac-DEVD-AMC substrate; Hepes/PEG buffer pH 7.0
T2 sequence (Q92851 220-415 limits assumed): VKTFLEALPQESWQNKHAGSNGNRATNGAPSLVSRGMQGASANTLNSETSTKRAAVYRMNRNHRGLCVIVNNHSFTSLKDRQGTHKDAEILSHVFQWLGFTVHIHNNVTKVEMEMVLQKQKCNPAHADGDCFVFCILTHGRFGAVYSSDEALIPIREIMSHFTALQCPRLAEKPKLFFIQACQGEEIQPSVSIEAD
T2 sequence (Q92851 416-521 limits assumed): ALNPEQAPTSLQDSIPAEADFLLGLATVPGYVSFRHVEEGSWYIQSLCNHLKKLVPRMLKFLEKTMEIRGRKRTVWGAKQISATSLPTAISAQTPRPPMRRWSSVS

Caspase-9 = biological target: T3, Caspase-9 (Homo sapiens, UniProt P55211); assay: Caspase-9 progress curve inhibition assay; conditions: second-order rate constant; Ac-LEHD-AFC substrate; Hepes buffer pH 7.0 with 0.7 M sodium citrate
T3 sequence (P55211 1-315 limits assumed): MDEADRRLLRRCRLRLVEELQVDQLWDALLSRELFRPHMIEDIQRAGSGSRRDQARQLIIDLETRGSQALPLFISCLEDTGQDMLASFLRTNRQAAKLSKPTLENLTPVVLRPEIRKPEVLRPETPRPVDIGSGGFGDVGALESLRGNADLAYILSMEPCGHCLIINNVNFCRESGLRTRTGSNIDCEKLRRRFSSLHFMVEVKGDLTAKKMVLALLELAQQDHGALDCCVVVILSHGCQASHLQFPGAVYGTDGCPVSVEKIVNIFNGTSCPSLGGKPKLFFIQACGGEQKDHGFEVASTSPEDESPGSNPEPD
T3 sequence (P55211 331-416 limits assumed): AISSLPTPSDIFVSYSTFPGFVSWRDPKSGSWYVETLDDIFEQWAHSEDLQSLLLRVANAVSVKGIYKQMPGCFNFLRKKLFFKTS

Caspase-7 = biological target: T4, Caspase-7 (Homo sapiens, UniProt P55210); assay: Caspase-7 progress curve inhibition assay; conditions: second-order rate constant; Ac-DEVD-AMC substrate; Pipes buffer pH 7.2
T4 sequence (P55210 24-198 limits assumed): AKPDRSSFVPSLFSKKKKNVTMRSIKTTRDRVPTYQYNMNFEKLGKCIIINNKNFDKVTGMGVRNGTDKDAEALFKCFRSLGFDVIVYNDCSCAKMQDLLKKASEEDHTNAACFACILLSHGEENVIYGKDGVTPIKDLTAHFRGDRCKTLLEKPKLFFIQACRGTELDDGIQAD
T4 sequence (P55210 207-303 limits assumed): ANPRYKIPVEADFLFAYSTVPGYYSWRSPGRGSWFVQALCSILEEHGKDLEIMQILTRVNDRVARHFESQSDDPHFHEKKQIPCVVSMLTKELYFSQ

Caspase-3 = biological target: T5, Caspase-3 (Homo sapiens, UniProt P42574); assay: Caspase-3 progress curve inhibition assay; conditions: second-order rate constant; Ac-DEVD-AMC substrate; Pipes buffer pH 7.2
T5 sequence (P42574 29-175 limits assumed): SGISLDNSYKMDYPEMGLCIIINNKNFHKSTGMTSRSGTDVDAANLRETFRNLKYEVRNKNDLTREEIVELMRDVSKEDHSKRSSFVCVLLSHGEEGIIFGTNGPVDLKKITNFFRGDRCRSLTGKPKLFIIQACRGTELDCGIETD
T5 sequence (P42574 176-277 limits assumed): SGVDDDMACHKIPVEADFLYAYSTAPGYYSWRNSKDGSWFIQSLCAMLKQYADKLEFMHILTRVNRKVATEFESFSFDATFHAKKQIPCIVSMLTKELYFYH

Caspase-6 = biological target: T6, Caspase-6 (Homo sapiens, UniProt P55212); assay: Caspase-6 progress curve inhibition assay; conditions: second-order rate constant; Ac-DEVD-AMC substrate; Pipes buffer pH 7.2
T6 sequence (P55212 24-179 limits assumed): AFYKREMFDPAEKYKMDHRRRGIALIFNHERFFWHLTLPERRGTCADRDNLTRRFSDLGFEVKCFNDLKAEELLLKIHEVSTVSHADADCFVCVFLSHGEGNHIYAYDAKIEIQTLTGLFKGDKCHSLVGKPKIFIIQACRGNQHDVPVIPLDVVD
T6 sequence (P55212 194-293 limits assumed): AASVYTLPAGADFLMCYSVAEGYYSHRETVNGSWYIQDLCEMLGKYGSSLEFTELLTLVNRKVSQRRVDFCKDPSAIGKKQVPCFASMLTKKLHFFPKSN

Caspase-8 = Caspase-8 (Homo sapiens, UniProt Q14790); assay: Caspase-8 progress curve inhibition assay; conditions: second-order rate constant; Ac-DEVD-AMC substrate; Pipes buffer pH 7.2
Caspase-8, sequence (Q14790 217-374 limits assumed): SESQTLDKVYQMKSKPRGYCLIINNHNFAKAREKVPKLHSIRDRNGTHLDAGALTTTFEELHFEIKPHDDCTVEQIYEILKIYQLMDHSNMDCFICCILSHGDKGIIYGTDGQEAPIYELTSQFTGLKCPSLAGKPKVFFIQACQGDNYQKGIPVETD
Caspase-8, sequence (Q14790 385-479 limits assumed): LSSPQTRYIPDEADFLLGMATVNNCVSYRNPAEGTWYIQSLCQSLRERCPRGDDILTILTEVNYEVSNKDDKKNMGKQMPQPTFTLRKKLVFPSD

Gingipain K, sequence (Q51817 229-1732 limits assumed): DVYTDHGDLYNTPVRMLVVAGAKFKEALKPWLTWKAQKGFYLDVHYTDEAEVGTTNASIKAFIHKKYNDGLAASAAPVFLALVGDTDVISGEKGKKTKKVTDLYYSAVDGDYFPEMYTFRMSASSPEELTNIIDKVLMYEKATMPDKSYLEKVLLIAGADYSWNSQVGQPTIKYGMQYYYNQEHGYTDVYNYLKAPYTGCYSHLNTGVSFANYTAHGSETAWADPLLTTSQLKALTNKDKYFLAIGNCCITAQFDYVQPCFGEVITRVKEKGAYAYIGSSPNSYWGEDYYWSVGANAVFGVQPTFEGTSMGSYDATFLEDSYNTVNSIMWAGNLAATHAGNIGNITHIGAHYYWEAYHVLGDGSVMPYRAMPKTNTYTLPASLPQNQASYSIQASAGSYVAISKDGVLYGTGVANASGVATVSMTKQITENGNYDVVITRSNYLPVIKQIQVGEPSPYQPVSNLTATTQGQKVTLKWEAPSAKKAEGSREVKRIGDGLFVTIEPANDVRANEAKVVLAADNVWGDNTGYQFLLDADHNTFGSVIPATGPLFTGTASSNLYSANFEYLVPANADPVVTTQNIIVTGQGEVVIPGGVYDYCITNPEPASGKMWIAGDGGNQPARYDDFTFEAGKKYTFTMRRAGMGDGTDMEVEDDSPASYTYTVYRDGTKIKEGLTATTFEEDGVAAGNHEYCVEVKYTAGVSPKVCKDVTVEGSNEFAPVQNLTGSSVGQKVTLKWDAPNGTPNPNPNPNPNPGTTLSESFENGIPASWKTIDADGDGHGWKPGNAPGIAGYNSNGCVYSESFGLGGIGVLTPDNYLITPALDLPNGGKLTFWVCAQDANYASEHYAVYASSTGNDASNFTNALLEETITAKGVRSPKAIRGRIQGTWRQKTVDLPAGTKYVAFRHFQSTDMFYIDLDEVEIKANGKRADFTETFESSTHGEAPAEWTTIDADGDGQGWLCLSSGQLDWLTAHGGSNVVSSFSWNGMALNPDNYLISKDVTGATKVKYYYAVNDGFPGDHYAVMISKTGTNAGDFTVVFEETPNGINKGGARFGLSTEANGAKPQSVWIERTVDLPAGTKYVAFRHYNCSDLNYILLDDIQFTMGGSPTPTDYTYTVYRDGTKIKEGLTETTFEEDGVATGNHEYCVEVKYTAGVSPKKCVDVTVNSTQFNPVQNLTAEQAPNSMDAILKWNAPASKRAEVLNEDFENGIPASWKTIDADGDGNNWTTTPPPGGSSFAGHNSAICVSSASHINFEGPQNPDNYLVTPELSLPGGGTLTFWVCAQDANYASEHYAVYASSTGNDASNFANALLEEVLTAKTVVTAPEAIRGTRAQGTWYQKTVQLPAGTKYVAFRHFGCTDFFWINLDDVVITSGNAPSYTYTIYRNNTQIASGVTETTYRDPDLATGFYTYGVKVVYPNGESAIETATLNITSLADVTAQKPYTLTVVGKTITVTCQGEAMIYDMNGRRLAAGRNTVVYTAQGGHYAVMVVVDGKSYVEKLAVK

Row | SMILES | kobs/[I] Gingipain K (Gingipain K) [M⁻¹ s⁻¹] | k2 Caspase-2 (Caspase-2) [M⁻¹ s⁻¹] | k2 Caspase-10 (Caspase-10) | k2 Caspase-9 (Caspase-9) | k2 Caspase-7 (Caspase-7) | k2 Caspase-3 (Caspase-3) | k2 Caspase-6 (Caspase-6) | k2 Caspase-8 (Caspase-8)
1 | CC(NC(=O)OCc1ccccc1)C(=O)NC(C)C(=O)NN(CC(N)=O)C(=O)C=CC(=O)N(C)c1ccc2ccccc2c1 (stereo not shown) | 6 |  |  |  |  |  |  | 
2 | CC(C)C[C@H](NC(=O)OCc1ccccc1)C(=O)N[C@@H](CCC(=O)O)C(=O)N[C@H](C(=O)NN(CC(=O)O)C(=O)/C=C/C(=O)NCCc1ccccc1)[C@@H](C)O (relative stereo) [Cbz-Leu-Glu-Thr-AAsp-CH═CH—CONHCH2CH2Ph, N^2—(N-Benzyloxycarbonylleucylglutamylthreonyl)-N^1-carboxylmethyl-N^1-trans-(3-phenylethylcarbamoylpropenoyl)hydrazine] |  | 110 | 17,900 M^−1s^−1 | 1,760 M^−1s^−1 | 440 M⁻¹ s⁻¹ | 5,400 M^−1s^−1 | 2,150 M^−1s^−1 | 121,000 M^−1s^−1
3 | CC(C)C[C@H](NC(=O)OCc1ccccc1)C(=O)N[C@@H](CCC(=O)O)C(=O)N[C@H](C(=O)NN(CC(=O)O)C(=O)/C=C/C(=O)NCc1ccccc1)[C@@H](C)O (relative stereo) [Cbz-Leu-Glu-Thr-AAsp-CH═CH—CONHCH2Ph, N^1-trans-(3-Benzylcarbamoylpropenoyl)-N^2—(N-benzyloxycarbonylleucylglutamylthreonyl)-N^1-carboxylmethylhydrazine] |  | 66 | 14,400 M^−1s^−1 | 1,400 M^−1s^−1 | 340 M⁻¹ s⁻¹ | 1,120 M^−1s^−1 | 1,550 M^−1s^−1 | 70,170 M^−1s^−1
4 | CC(C)C[C@H](NC(=O)OCc1ccccc1)C(=O)N[C@@H](CCC(=O)O)C(=O)N[C@H](C(=O)NN(CC(=O)O)C(=O)/C=C/C(=O)Nc1ccccc1)[C@@H](C)O (relative stereo) [Cbz-Leu-Glu-Thr-AAsp-CH═CH—CONHPh, N^2—(N-Benzyloxycarbonylleucylglutamylthreonyl)-N^1-carboxylmethyl-N^1-trans-(3-phenylcarbamoylpropenoyl)hydrazine] |  | 290 | 6,050 M^−1s^−1 | 1,190 M^−1s^−1 | 730 M⁻¹ s⁻¹ | 4,700 M^−1s^−1 | 11,400 M^−1s^−1 | 176,000 M^−1s^−1
5 | CCOC(=O)/C=C/C(=O)N(CC(=O)O)NC(=O)[C@@H](NC(=O)[C@H](CCC(=O)O)NC(=O)[C@@H](NC(=O)OCc1ccccc1)C(C)C)C(C)C (relative stereo) [Cbz-Val-Glu-Val-AAsp-CH═CH—COOEt, N^2—(N-Benzyloxycarbonylvalylglutamylvalyl)-N^1-carboxymethyl-N^1-trans-(3-ethoxycarbonylpropenoyl)hydrazine] |  | 115 | 6,600 M^−1s^−1 | 340 M⁻¹ s⁻¹ | 3,650 M^−1s^−1 | 41,200 M^−1s^−1 | 83,600 M^−1s^−1 | 175,800 M^−1s^−1
6 | CC(C)[C@H](NC(=O)[C@H](CCC(=O)O)NC(=O)[C@H](CC(=O)O)NC(=O)OCc1ccccc1)C(=O)NN(CC(=O)O)C(=O)/C=C/C(=O)NCc1ccc(F)cc1 (relative stereo) [N^2—(N-Benzyloxycarbonylaspartylglutamylvalyl)-N^1-carboxymethyl-N^1-trans-(3-(4-fluorobenzyl)carbamoylpropenoyl)hydrazine] |  | 130 | 37,700 M^−1s^−1 | 900 M⁻¹ s⁻¹ | 329,000 M^−1s^−1 | 2,100,000 M^−1s^−1 | 4,400 M^−1s^−1 | 85,100 M^−1s^−1
7 | CC(C)[C@H](NC(=O)[C@H](CCC(=O)O)NC(=O)[C@H](CC(=O)O)NC(=O)OCc1ccccc1)C(=O)NN(CC(=O)O)C(=O)/C=C/C(=O)N(C)CCc1ccccc1 (relative stereo) [N^2—(N-Benzyloxycarbonylaspartylglutamylvalyl)-N^1-carboxymethyl-N^1-trans-(3-phenethylmethylcarbamoylpropenoyl)hydrazine] |  | 320 | 9,570 M^−1s^−1 | 425 M⁻¹ s⁻¹ | 172,000 M^−1s^−1 | 1,180,000 M^−1s^−1 | 4,000 M^−1s^−1 | 31,900 M^−1s^−1
8 | CC(C)C[C@H](NC(=O)OCc1ccccc1)C(=O)N[C@@H](CCC(=O)O)C(=O)N[C@H](C(=O)NN(CC(=O)O)C(=O)/C=C/C(=O)NCc1ccc(F)cc1)[C@@H](C)O (relative stereo) [N^2—(N-Benzyloxycarbonylleucylglutamylthreonyl)-N^1-carboxylmethyl-N^1-trans-(3-(4-fluorobenzyl)carbamoylpropenoyl)hydrazine] |  | 70 | 9,380 M^−1s^−1 | 1,695 M^−1s^−1 | 410 M⁻¹ s⁻¹ | 4,490 M^−1s^−1 | 3,100 M^−1s^−1 | 171,000 M^−1s^−1
9 | CC(C)C[C@H](NC(=O)OCc1ccccc1)C(=O)N[C@@H](CCC(=O)O)C(=O)N[C@H](C(=O)NN(CC(=O)O)C(=O)/C=C/C(=O)N(C)Cc1cccc2ccccc12)[C@@H](C)O (relative stereo) [N^2—(N-Benzyloxycarbonylleucylglutamylthreonyl)-N^1-carboxylmethyl-N^1-trans-(3-(methyl-1-naphthylmethyl)carbamoylpropenoyl)hydrazine] |  | 290 | 13,600 M^−1s^−1 | 5,030 M^−1s^−1 | 1,100 M^−1s^−1 | 11,200 M^−1s^−1 | 21,700 M^−1s^−1 | 179,000 M^−1s^−1
10 | CC(C)C[C@H](NC(=O)OCc1ccccc1)C(=O)N[C@@H](CCC(=O)O)C(=O)N[C@H](C(=O)NN(CC(=O)O)C(=O)/C=C/C(=O)N(C)CCc1ccccc1)[C@@H](C)O (relative stereo) [N^2—(N-Benzyloxycarbonylleucylglutamylthreonyl)-N^1-carboxylmethyl-N^1-trans-(3-methylphenylethylcarbamoylpropenoyl)hydrazine] |  | 50 | 6,190 M^−1s^−1 | 960 M⁻¹ s⁻¹ | 290 M⁻¹ s⁻¹ | 2,620 M^−1s^−1 | 2,550 M^−1s^−1 | 65,300 M^−1s^−1

From patent US7482379B2, “Propenoyl hydrazides” (priority 2004, dated 2009)
